Converted amounts (≈) assume the structure as drawn.
Legend:
[1] = system: M. tuberculosis H37Rv expressing the green fluorescent protein (H37Rv-GFP); experiment: microbe, parasite or virus in culture; assay type: cell-based; conditions: Mycobacterium tuberculosis, H37RV, 120 h; read-out: QUM (MIC50)
[2] = system: Raw 264.7 cells infected with H37Rv-GFP; experiment: microbe, parasite or virus in culture; assay type: cell-based, M. tuberculosis; conditions: Mycobacterium tuberculosis, H37RV, 120 h; read-out: QIM (MIC50)

O=C(Nc1ccc(OC(F)(F)F)cc1)c1cc2sc(N3CCCCC3)nc2s1 [Compound 58]
MIC50 [1]: 1 to 20 µM (≈ 0.427 to 8.55 µg/mL)
melting point: 239 °C
MIC50 [2]: < 1 µM

COc1ccc(NC(=O)c2cc3sc(N)nc3s2)cc1 [Compound 64]
MIC50 [1]: > 20 µM
melting point: 260 °C
MIC50 [2]: 1 to 20 µM (≈ 0.305 to 6.11 µg/mL)

COc1ccc(NCc2cc3sc(N4CCCCC4)nc3s2)cc1 [Compound 69]
MIC50 [1]: > 20 µM
melting point: 105 °C
MIC50 [2]: > 20 µM

O=C(Nc1ccc(O)cc1)c1cc2sc(N3CCCCC3)nc2s1 [Compound 97]
MIC50 [1]: 1 to 20 µM (≈ 0.359 to 7.19 µg/mL)
melting point: 246 °C
MIC50 [2]: 1 to 20 µM (≈ 0.359 to 7.19 µg/mL)

COc1ccc(NC(=O)c2cc3sc(N4CCC(F)(F)CC4)nc3s2)cc1 [Compound 72]
MIC50 [1]: 1 to 20 µM (≈ 0.409 to 8.19 µg/mL)
melting point: 263.5 °C
MIC50 [2]: < 1 µM

CN(C)C(=O)C1CCN(c2nc3sc(C(=O)Nc4ccc(F)nc4)cc3s2)CC1 [Compound 137]
MIC50 [1]: < 1 µM
melting point: 295.9 °C
MIC50 [2]: 1 to 20 µM (≈ 0.434 to 8.67 µg/mL)

O=C(Nc1ccc(-c2ccccc2)cc1)c1cc2sc(N3CCCCC3)nc2s1 [Compound 39]
MIC50 [1]: > 20 µM
melting point: 231.1 °C
MIC50 [2]: < 1 µM

COc1ccc(NC(=O)c2cc3sc(NC(=O)C4CCCCC4)nc3s2)cc1 [Compound 65]
MIC50 [1]: > 20 µM
melting point: 271 °C
MIC50 [2]: 1 to 20 µM (≈ 0.416 to 8.31 µg/mL)

O=C(Nc1ccc(CN2CCC(c3ccc(Cl)cc3)CC2)cc1)c1cc2sc(N3CCOCC3)nc2s1 [Compound 200]
MIC50 [1]: > 20 µM
melting point: 254.6 °C
MIC50 [2]: > 20 µM

COc1ccc(NC(=O)c2cc3sc(NC4CCCC4)nc3s2)cc1 [Compound 90]
MIC50 [1]: < 1 µM
melting point: 239.3 °C
MIC50 [2]: < 1 µM

O=C(Nc1cc(-c2ccccc2)[nH]n1)c1cc2sc(N3CCOCC3)nc2s1 [Compound 160]
MIC50 [1]: > 20 µM
melting point: 305 °C
MIC50 [2]: < 1 µM

Cc1nnc(-c2ccc(NC(=O)c3cc4sc(N5CCC(O)CC5)nc4s3)cc2)o1 [Compound 123]
MIC50 [1]: > 20 µM
melting point: 334.4 °C
MIC50 [2]: > 20 µM

Cc1nc2cc(NC(=O)c3cc4sc(N5CCOCC5)nc4s3)c(F)cc2o1 [Compound 181]
MIC50 [1]: > 20 µM
melting point: 287 °C
MIC50 [2]: > 20 µM

COc1ccc(NC(=O)c2cc3sc(NCc4ccc(OC)nc4)nc3s2)cc1 [Compound 104]
MIC50 [1]: < 1 µM
melting point: 230.9 °C
MIC50 [2]: < 1 µM

Cc1ccc(-c2ccc(NC(=O)c3cc4sc(N5CCOCC5)nc4s3)cc2)cn1 [Compound 161]
MIC50 [1]: > 20 µM
melting point: 292 °C
MIC50 [2]: < 1 µM

N#Cc1ccc(NC(=O)c2cc3sc(N4CCCCC4)nc3s2)cc1 [Compound 54]
MIC50 [1]: < 1 µM
melting point: 177 °C
MIC50 [2]: < 1 µM

COc1ccc(NC(=O)c2cc3sc(N4CCN(C)CC4)nc3s2)cc1 [Compound 110]
MIC50 [1]: 1 to 20 µM (≈ 0.389 to 7.77 µg/mL)
melting point: 219.8 °C
MIC50 [2]: < 1 µM

CCN(Cc1ccc(OC)cc1)c1nc2sc(C(=O)Nc3ccc(OC)cc3)cc2s1 [Compound 114]
MIC50 [1]: 1 to 20 µM (≈ 0.454 to 9.07 µg/mL)
melting point: 112 °C
MIC50 [2]: < 1 µM

O=C(c1cc2sc(N3CCOCC3)nc2s1)N1CCC(Cc2ccc(Cl)cc2)CC1 [Compound 173]
MIC50 [1]: > 20 µM
melting point: 167.2 °C
MIC50 [2]: > 20 µM

O=C(Nc1ccc(Cl)cc1)c1cc2nc(N3CCCCC3)sc2s1 [Compound 29]
MIC50 [1]: 1 to 20 µM (≈ 0.378 to 7.56 µg/mL)
melting point: 230 °C
MIC50 [2]: 1 to 20 µM (≈ 0.378 to 7.56 µg/mL)

COc1ncc(NC(=O)c2cc3sc(N4CCCCC4)nc3s2)cn1 [Compound 55]
MIC50 [1]: > 20 µM
melting point: 219 °C
MIC50 [2]: < 1 µM

Cc1nc2cc(NC(=O)C3CCc4nc(N5CCOCC5)sc4C3)ccc2o1 (stereo not drawn) [Compound 170]
MIC50 [1]: > 20 µM
melting point: 239 °C
MIC50 [2]: > 20 µM

COc1ccc(NC(=O)c2cc3sc(N4CCC4)nc3s2)cc1 [Compound 80]
MIC50 [1]: 1 to 20 µM (≈ 0.345 to 6.91 µg/mL)
melting point: 256 °C
MIC50 [2]: < 1 µM

COc1ccc(NC(=O)c2cc3scnc3s2)cc1 [Compound 75]
MIC50 [1]: 1 to 20 µM (≈ 0.29 to 5.81 µg/mL)
melting point: 212 °C
MIC50 [2]: > 20 µM

Cc1nc2cc(NC(=O)N3CCc4nc(N5CCOCC5)sc4C3)ccc2o1 [Compound 187]
MIC50 [1]: > 20 µM
melting point: 104 °C
MIC50 [2]: > 20 µM

Cc1nc2cc(NC(=O)c3cc4sc(N5CCOCC5)nc4s3)ccc2o1 [Compound 83]
MIC50 [1]: < 1 µM
melting point: 268.3 °C
MIC50 [2]: < 1 µM

Cn1ncc2ccc(NC(=O)c3cc4sc(N5CCOCC5)nc4s3)cc21 [Compound 131]
MIC50 [1]: > 20 µM
melting point: 288 °C
MIC50 [2]: > 20 µM

COC1CCN(c2nc3sc(C(=O)Nc4ccc5oc(C)nc5c4)cc3s2)CC1 [Compound 124]
MIC50 [1]: < 1 µM
melting point: 237.9 °C
MIC50 [2]: < 1 µM
